Reference: patent publication US4769389A, “Oxygenated-alkyl derivatives of glutamic and aspartic acids with antagonistic activity to bio-active polypeptides and a method for their preparation” (priority 1985, dated 1988)
≈ marks a conversion by molar mass, not a printed value. Where two headings read alike, the source gives them in different places.

Columns and labels:
[1] = test system: pancreatitis in rats induced experimentally by taurocholate; test: Pancreatitis induced by sodium taurocolate in rats; assay type: in vivo; conditions: for ED50: Rattus norvegicus, ip, taurocholate, rats
Description: The products under examination were administered intraperitoneally (i.p.) 30 minutes before the operation and 3 hours after the operation. Six hours after the laparatomy the blood was removed from the retro-orbitory plexus after anaesthesia with ether, the animals were killed and the pancreas was removed and weighed. The activity of the serum amylase was determined by the method described above.

guinea pig gall bladders = test: Anti-CCK-8 activity on guinea-pig gallbladders in situ (in vivo); conditions: Cavia porcellus, iv; CCK-8 10 ng/kg i.v.; compound i.v.; read-out: ID50, anti-CCK-8 activity in situ
Description: In order to confirm the evidence of the studies in vitro, several of the more interesting compounds were tested in vivo with the use of guinea-pig gallbladders in situ.
The method used was that described by Ljungberg (Svensk. Farm. Tidskr. 69, 351-354, 1964).
Guinea-pigs having a weight of about 400 g anaesthetised with urethane were used; the substances being tested were administered intravenously (i.v.) into the jugular vein.
The responses of the gallbladder to the substances being tested were detected by means of a force transducer and recorded by means of a microdynamometer. 10 ng/kg of CCK 8 were chosen as the optimum contracting dose. The antagonistic compounds tested were administered in increasing doses so as to enable the calculation of an ID50 value, that is the dose (in mg/kg i.v.) having a 50% inhibiting effect against contractions induced by 10 ng/kg i.v. of CCK-8.

in vivo = conditions: mouse, iv
colon of rabbits = test: Antispastic activity in the colon of rabbits stimulated with CCK-8; assay type: in vivo, rabbit; design: Antispastic activity in colon, EXPERIMENT 1 / Antispastic activity in colon, EXPERIMENT 2: unit not given here; conditions: CCK 100 ng/kg
Description: The abdomen of anaesthetised rabbit is cut open to display the tranverse colon. A small balloon full of water is inserted at an established point and connected to a pressure transducer by means of a polyethylene cannula filled with H2 O.
The optimum sensitivity being fixed in relation to the physiological contractions, the products were administered through the femeral vein. Contractions were induced by the administration of 100 ng/kg of CCK.

digestive tract = test: Antispastic activity, vegetable carbon test (speed of transit through stomach and intestine) in mice; assay type: in vivo; conditions: Mus musculus, ip, read-out: A[…] ED50 (dose which reduces the intestinal transit time of the carbon by 50%), intraperitoneally
Excerpt: The anti-spastic activity which the present compounds exert on the whole of the digestive tract is also considerable. Measured in mice with the vegetable carbon test (speed of transit through the stomach and intestine) this activity is illustrated in the following table: […]

guinea-pig gallbladder = test: Anti-CCK activity on guinea-pig gallbladders in vitro (contraction by CCK-8); conditions: for IC50: Cavia porcellus, CCK-8 10 ng/ml, in vitro
Description: ANTI-CCK ACTIVITY ON GUINEA-PIG GALLBLADDERS IN VITRO A longitudinal strip of guinea-pig gallbladder is placed in a bath for isolated organs in Krebs at a temperature of 32° C. and oxygenated continuously with an oxygen-CO2 mixture (95-[…]). The isometric contractions were detected by means of a force transducer and recorded. […] The results obtained are shown in Table 3 which gives the compounds tested and the IC50 values found which were calculated by the method of regression in a test of at least three experiments for each compound studied.

[2] = test system: pancreatitis in mice induced experimentally by cerulein; test: Pancreatitis induced by cerulein in mice; assay type: in vivo; conditions: for ED50: Mus musculus, ip, cerulein, mice
Description: Adult male mice received six injections of cerulein (Takus) (50 mcg/kg) each hour for six hours.
The compound was administered 30 minutes before each administration of cerulein. Nine hours after the beginning of the treatment, the blood was taken from the rectro-orbitory plexus after anaesthesia with ether, the animals were killed and the pancreas removed and weighed.

For CCCCCN(CCOCC)C(=O)C(CCC(=O)O)NC(=O)c1ccc(Cl)c(Cl)c1 (centres unmarked) [Compound 2], the “AMYLASE IN THE SERUM” value ([1]; 5 mg/kg i.p. + taurocholate) was 10.6 U/ml, the “INHIBITION OF AMYLASE INCREASE” value ([1]; 5 mg/kg i.p. + taurocholate) was 28.2% and the “INHIBITION OF WEIGHT INCREASE” value ([1]; 5 mg/kg i.p. + taurocholate) was 44.4%. The “RATIO WEIGHT OF PANCREAS / ANIMAL WEIGHT” value ([1]; 5 mg/kg i.p. + taurocholate) was 0.50%, the “AMYLASE IN THE SERUM” value ([1]; 10 mg/kg i.p. + taurocholate) was 8.9 U/ml and the “INHIBITION OF AMYLASE INCREASE” value ([1]; 10 mg/kg i.p. + taurocholate) was 71.8%. For the same compound, the “INHIBITION OF WEIGHT INCREASE” value ([1]; 10 mg/kg i.p. + taurocholate) was 63.0%, the “RATIO WEIGHT OF PANCREAS / ANIMAL WEIGHT” value ([1]; 10 mg/kg i.p. + taurocholate) was 0.45% and the “AMYLASE IN THE SERUM” value ([1]; 20 mg/kg i.p. + taurocholate) was 7.7 U/ml. The “INHIBITION OF AMYLASE INCREASE” value ([1]; 20 mg/kg i.p. + taurocholate) was 102.6%, the “INHIBITION OF WEIGHT INCREASE” value ([1]; 20 mg/kg i.p. + taurocholate) was 74.1% and the “RATIO WEIGHT OF PANCREAS / ANIMAL WEIGHT” value ([1]; 20 mg/kg i.p. + taurocholate) was 0.42%. For the same compound, the ED50 ([1]; read-out: ED50, inhibition of amylase increase) was 8.6 mg/kg, the ED50 ([1]; read-out: ED50, inhibition of weight increase) was 10.1 mg/kg and the ED50 (guinea pig gall bladders) was 0.1 mg/kg. The LD50 (in vivo) was 338 mg/kg, the selectivity ratio (in vivo) was 3380 and the “Antispastic activity in colon, EXPERIMENT 1” value (colon of rabbits; 0.3 mg/kg i.v.) was -9.8. For the same compound, the “Antispastic activity in colon, EXPERIMENT 2” value (colon of rabbits; 0.3 mg/kg i.v.) was -27.2, the “Antispastic activity in colon, EXPERIMENT 1” value (colon of rabbits; 1 mg/kg i.v.) was -45.1 and the “Antispastic activity in colon, EXPERIMENT 2” value (colon of rabbits; 1 mg/kg i.v.) was -39.8. For the same compound, the “Antispastic activity in colon, EXPERIMENT 1” value (colon of rabbits; 3 mg/kg i.v.) was -88.0, the “Antispastic activity in colon, EXPERIMENT 2” value (colon of rabbits; 3 mg/kg i.v.) was -92.4 and the ED50 (colon of rabbits; Oryctolagus cuniculus, iv) was 1.47 mg/kg. The ED50 (digestive tract) was 14 mg/kg, the IC50 (guinea-pig gallbladder) was 0.1 µg/mL (≈ 0.217 µM) and the “50% antagonising concentration relative to that of the specific agonist” value (guinea-pig gallbladder; vs CCK-8 10 ng/ml) was “about 10 times”. The “AMYLASE IN THE SERUM” value ([2]; 5 mg/kg ip + cerulein) was 54.7 U/ml, the “INHIBITION OF WEIGHT INCREASE” value ([2]; 5 mg/kg ip + cerulein) was 55.2% and the “INHIBITION OF WEIGHT INCREASE (pancreas)” value ([2]; 5 mg/kg ip + cerulein) was 24.5%. For the same compound, the “RATIO WEIGHT OF PANCREAS / ANIMAL WEIGHT” value ([2]; 5 mg/kg ip + cerulein) was 0.54%, the “AMYLASE IN THE SERUM” value ([2]; 7.5 mg/kg ip + cerulein) was 21.7 U/ml and the “INHIBITION OF WEIGHT INCREASE” value ([2]; 7.5 mg/kg ip + cerulein) was 88.3%. For the same compound, the “INHIBITION OF WEIGHT INCREASE (pancreas)” value ([2]; 7.5 mg/kg ip + cerulein) was 61.2%, the “RATIO WEIGHT OF PANCREAS / ANIMAL WEIGHT” value ([2]; 7.5 mg/kg ip + cerulein) was 0.45% and the “AMYLASE IN THE SERUM” value ([2]; 10 mg/kg ip + cerulein) was 11.8 U/ml. The “INHIBITION OF WEIGHT INCREASE” value ([2]; 10 mg/kg ip + cerulein) was 98.3%, the “INHIBITION OF WEIGHT INCREASE (pancreas)” value ([2]; 10 mg/kg ip + cerulein) was 89.8% and the “RATIO WEIGHT OF PANCREAS / ANIMAL WEIGHT” value ([2]; 10 mg/kg ip + cerulein) was 0.38%. For the same compound, the ED50 ([2]; read-out: ED50 (inhibition of weight increase)) was 4.6 mg/kg and the ED50 ([2]; read-out: ED50, inhibition of weight increase of the pancreas) was 6.3 mg/kg.
For CCCCCN(CCCOCC)C(=O)C(CCC(=O)O)NC(=O)c1ccc(Cl)c(Cl)c1 (centres unmarked) [Compound 3], the ED50 (guinea pig gall bladders) was 0.75 mg/kg, the LD50 (in vivo) was 298 mg/kg and the selectivity ratio (in vivo) was 397. The ED50 (digestive tract) was 25 mg/kg and the IC50 (guinea-pig gallbladder) was 0.6 µg/mL (≈ 1.26 µM).
For CCCCCN(CCCOC(C)C)C(=O)C(CCC(=O)O)NC(=O)c1ccc(Cl)c(Cl)c1 (centres unmarked) [Compound 4], the ED50 (guinea pig gall bladders) was 5.08 mg/kg and the IC50 (guinea-pig gallbladder) was 3 µg/mL (≈ 6.13 µM).
Work on CCCCCN(CCOC)C(=O)C(CCC(=O)O)NC(=O)c1ccc(Cl)c(Cl)c1 (centres unmarked) [Compound 5] yielded an ED50 (guinea pig gall bladders) of 0.68 mg/kg, an LD50 (in vivo) of 485 mg/kg and a selectivity ratio (in vivo) of 713. For the same compound, the ED50 (digestive tract) was 20.8 mg/kg and the IC50 (guinea-pig gallbladder) was 0.8 µg/mL (≈ 1.79 µM).
For CCCCCN(CCCO)C(=O)C(CCC(=O)O)NC(=O)c1ccc(Cl)c(Cl)c1 (centres unmarked) [Compound 6], the ED50 (guinea pig gall bladders) was 8.4 mg/kg and the IC50 (guinea-pig gallbladder) was 0.3 µg/mL (≈ 0.671 µM).
For CCCCCN(CCCOC)C(=O)C(CCC(=O)O)NC(=O)c1ccc(C)c(C)c1 (centres unmarked) [Compound 7], the ED50 (guinea pig gall bladders) was 0.65 mg/kg, the LD50 (in vivo) was 440 mg/kg and the selectivity ratio (in vivo) was 677. For the same compound, the ED50 (digestive tract) was 33.9 mg/kg and the IC50 (guinea-pig gallbladder) was 0.9 µg/mL (≈ 2.14 µM).
CCCCCN(CCOCC)C(=O)C(CCC(=O)O)NC(=O)c1ccc(C)c(C)c1 (centres unmarked) [Compound 8] showed an ED50 (guinea pig gall bladders) of 2.02 mg/kg and an IC50 (guinea-pig gallbladder) of 1.1 µg/mL (≈ 2.62 µM).
In the case of CCCCCN(CCCOC)C(=O)C(CCC(=O)O)NC(=O)c1ccc(C)cc1 (centres unmarked) [Compound 9], the ED50 (guinea pig gall bladders) is reported as 3.85 mg/kg and the IC50 (guinea-pig gallbladder) is reported as 4 µg/mL (≈ 9.84 µM).
CCCCCN(CCCOC)C(=O)C(CCC(=O)O)NC(=O)c1cccc(C)c1 (centres unmarked) [Compound 10] gave an ED50 (guinea pig gall bladders) of 3.66 mg/kg and an IC50 (guinea-pig gallbladder) of 4.1 µg/mL (≈ 10.1 µM).
CCCCCN(CCCOC)C(=O)C(CCC(=O)O)NC(=O)c1ccc(Cl)cc1 (centres unmarked) [Compound 11] gave an ED50 (guinea pig gall bladders) of 3.25 mg/kg and an IC50 (guinea-pig gallbladder) of 2.6 µg/mL (≈ 6.09 µM).
